# From patent US6706757B2, “Chroman derivatives as 5-hydroxytryptamine-6 ligands” (Wyeth, priority 2001, dated 2004)
# Structures can show the parent of a compound that is named as a salt.
row,melting point,Compound
1,245 to 246 °C,"C[C@@H](NCC1CCc2ccc(N(C)S(=O)(=O)c3cccc4ccccc34)cc2O1)c1ccccc1 (stereo partly drawn) (as salt: HCl) [Example 55, N-methyl-N-[2-({[(1R)-1-phenylethyl]amino}methyl)-3,4-dihydro-2H-chromen-7-yl]naphthalene-1-sulfonamide]"
2,208 to 210 °C,"C[C@@H](NCC1CCc2ccc(N(C)S(=O)(=O)c3ccc(F)cc3)cc2O1)c1ccccc1 (stereo partly drawn) (as salt: HCl) [Example 52, 4-fluoro-N-methyl-N-[2-({[(1R)-1-phenylethyl]amino}methyl)-3,4-dihydro-2H-chromen-7-yl]benzenesulfonamide]"
3,200 °C (dec.),"C[C@@H](NCC1CCc2ccc(N(C)S(=O)(=O)c3ccc(N)cc3)cc2O1)c1ccccc1 (stereo partly drawn) (as salt: HCl) [Example 56, 4-amino-N-methyl-N-[2-({[(1R)-1-phenylethyl]amino}methyl)-3,4-dihydro-2H-chromen-7-yl]benzenesulfonamide]"
